Results taken from patent US10993957B2 (NuCana plc, priority 2011, dated 2021).
Like-named read-outs stand apart in the source and are kept apart here.

How the values were obtained:
[1] = tested on: HeLa/TK^−; assay: Cytostatic assay, HeLa/TK^− cells; assay type: cell-based; details: for CC50: Table 1, read-out: CC50 HeLa/TK^−; for IC50: Table 6, read-out: IC50 HeLa/TK^−
Source text: (§1) The cell lines employed were L1210/0 (a leukemia cell line), FM3A/0 (a breast cancer cell line), Cem/0 (an acute lymphoblastic leukemia cell line) and HeLa (a cervical cell line).

[2] = tested on: L1210/0; assay: Cytostatic assay, L1210/0 cells; assay type: cell-based, murine; details: for IC50: read-out: IC50 L1210/0
Source text: as §1

[3] = tested on: HeLa; assay: Cytostatic assay, HeLa cells; assay type: cell-based; details: for CC50: Table 1, read-out: CC50 HeLa; for IC50: Table 6, read-out: IC50 HeLa
Source text: as §1

[4] = tested on: L1210.Hyor; assay: Cytostatic assay, Mycoplasma hyorhinis-infected L1210 cells; details: for % Retention: CC50 L1210 × 100 ÷ CC50 L1210/Hyor; for CC50: L1210, read-out: CC50 L1210/Hyor
Source text: Murine leukaemia L1210/0 and human T-lymphocyte CEM/0 cells were obtained from the American Type Culture Collection (ATCC) (Rockville, Md.). Human glioblastoma U87 cells were kindly provided by Dr. E. Menue (Institut Pasteur, Paris, France). […] S. Eriksson (currently at Uppsala University, Uppsala, Sweden) and Prof A. Karlsson (Karolinska Institute, Stockholm, Sweden). […] All cells were maintained in Dulbecco's modified Eagle's medium (DMEM) (Invitrogen, Carlsbad, Calif.) with 10% foetal bovine serum (FBS) (Biochrom AG, Berlin, Germany), 10 mM Hepes and 1 mM Sodium Pyruvate (Invitrogen). Cells were grown at 37° C. in a humidified incubator with a gas phase of 5% CO2.
Monolayer cells (U87 and U87.Hyor) were seeded in 48-well microtiter plates (Nunc™, Roskilde, Denmark) at 10,000 cells/well. After 24 hours, an equal volume of fresh medium containing the test compounds was added. On day 5, cells were trypsinized and counted in a Coulter counter (Analis, Suarlée, Belgium). Suspension cells (L1210/0, L1210/TK^−, L1210.Hyor, CEM/0, CEM/TK^−) were seeded in 96-well microtiter plates (Nunc™) at 60,000 cells/well in the presence of a given amount of the test compounds. The cells were allowed to proliferate for 48 h (L1210) or 72 hours (CEM) and were then counted in a Coulter counter.
Samples were also assayed for their % retention of activity in mycoplasma infected cells.
The L1210/0 cell cultures were infected with the mycoplasma species M. hyorhinis (cells designated: L1210.Hyor).

[5] = tested on: L1210/TK^−; assay: Cytostatic assay, thymidine kinase-deficient L1210/TK^− cells; assay type: cell-based, murine; details: for CC50: L1210, Table 1, read-out: CC50 L1210/TK^−; for IC50: Table 6, read-out: IC50 L1210/TK^−
[6] = tested on: Cem/0; assay: Cytostatic assay, CEM/0 cells; assay type: cell-based, human; details: for CC50: Table 1, read-out: CC50 Cem/0; for IC50: Table 6, read-out: IC50 Cem/0
Source text: as §1

[7] = tested on: Cem/TK^−; assay: Cytostatic assay, thymidine kinase-deficient CEM/TK^− cells; assay type: cell-based, human; details: for CC50: Table 1, read-out: CC50 Cem/TK^−; for IC50: Table 6, read-out: IC50 Cem/TK^−
[8] = Mus musculus, L1210/0, Table 1, read-out: CC50 L1210/0
[9] = Mus musculus, L1210/0, Table 2, mycoplasma negative cells, read-out: CC50 L1210
[10] = Mus musculus, L1210, read-out: IC50 L1210.Hyor
[11] = read-out: IC50 L1210.Hyor, Table 7

| Structure (SMILES) | CC50 ([1]; Homo sapiens, HeLa) [nM] | IC50 ([1]; Homo sapiens, HeLa) [nM] | CC50 [2, 8] [nM] | CC50 [2, 9] [nM] | IC50 ([2]; Mus musculus, L1210/0, Table 6) [nM] | IC50 ([2]; Mus musculus, L1210/0, Table 7) [nM] | CC50 ([3]; Homo sapiens, HeLa) [nM] | IC50 ([3]; Homo sapiens, HeLa) [nM] | % Retention [4] [%] | CC50 ([4]; Mus musculus) [nM] | IC50 [4, 10] [nM] | IC50(L1210.Hyor)/IC50(L1210/0) ([4]; Table 7) | IC50 [1] [nM] | IC50 ([2]; Table 6) [nM] | IC50 ([2]; Table 7) [nM] | IC50 [3] [nM] | IC50 [4, 11] [nM] | IC50 [5] [nM] | IC50 [6] [nM] | IC50 [7] [nM] | other results |
| --- | --- | --- | --- | --- | --- | --- | --- | --- | --- | --- | --- | --- | --- | --- | --- | --- | --- | --- | --- | --- | --- |
| CSCC[C@H](NP(=O)(OC[C@H]1O[C@@H](n2cc(F)c(=O)[nH]c2=O)CC1O)Oc1ccccc1)C(=O)OCc1ccccc1 (stereo partly drawn) [CPF 586, 5-Fluoro-2′-deoxyuridine-5′-O-[phenyl-(benzoxy-L-methioninyl)] phosphate] | 11000 ± 7000 | 11000 ± 7000 | 73 ± 35 | 100 | 73 ± 35 | 58 ± 35 | 150 ± 20 | 150 ± 20 | 11 | 870 | 760 ± 180 | 13 |  |  |  |  |  |  |  |  | CC50 ([5]; Mus musculus): 4100 ± 1200 nM; IC50 ([5]; Mus musculus, L1210): 4100 ± 1200 nM; CC50 ([6]; Homo sapiens, CCRF-CEM): 280 ± 30 nM; IC50 ([6]; Homo sapiens, CCRF-CEM): 280 ± 30 nM; CC50 ([7]; Homo sapiens, CEM-TK(-)): 25000 nM; IC50 ([7]; Homo sapiens, CEM-TK(-)): 25000 nM |
| O=C(OCc1ccccc1)[C@H](Cc1ccccc1)NP(=O)(OC[C@H]1O[C@@H](n2cc(F)c(=O)[nH]c2=O)CC1O)Oc1cccc2ccccc12 (stereo partly drawn) [CPF 587, 5-Fluoro-2′-deoxyuridine-5′-O-[1-naphthyl-(benzoxy-L-phenylalaninyl)]phosphate] | 6800 ± 1500 | 6800 ± 1500 | 12 ± 7 | 22 | 12 ± 7 | 21 ± 6.1 | 160 ± 80 | 160 ± 80 | 0.5 | 4200 | 230 ± 78 | 11 |  |  |  |  |  |  |  |  | CC50 ([5]; Mus musculus): 5600 ± 1300 nM; IC50 ([5]; Mus musculus, L1210): 5600 ± 1300 nM; CC50 ([6]; Homo sapiens, CCRF-CEM): 100 ± 30 nM; IC50 ([6]; Homo sapiens, CCRF-CEM): 100 ± 30 nM; CC50 ([7]; Homo sapiens, CEM-TK(-)): 7200 ± 100 nM; IC50 ([7]; Homo sapiens, CEM-TK(-)): 7200 ± 100 nM |
| C[C@H](NP(=O)(OC[C@H]1O[C@@H](n2cc(F)c(=O)[nH]c2=O)CC1O)Oc1cccc2ccccc12)C(=O)OCC(C)(C)C (stereo partly drawn) [CPF 588, 5-Fluoro-2′-deoxyuridine-5′-O-[1-naphthyl-(2,2-dimethylpropoxy-L-alaninyl)] phosphate] | 32000 ± 26000 | 32000 ± 26000 | 270 ± 110 | 237 | 270 ± 110 | 93 ± 33 | 700 ± 110 | 700 ± 110 | 61 | 390 | 180 ± 69 | 1.9 |  |  |  |  |  |  |  |  | CC50 ([5]; Mus musculus): 1200 ± 700 nM; IC50 ([5]; Mus musculus, L1210): 1200 ± 700 nM; CC50 ([6]; Homo sapiens, CCRF-CEM): 490 ± 50 nM; IC50 ([6]; Homo sapiens, CCRF-CEM): 490 ± 50 nM; CC50 ([7]; Homo sapiens, CEM-TK(-)): 6700 ± 1000 nM; IC50 ([7]; Homo sapiens, CEM-TK(-)): 6700 ± 1000 nM |
| CCCCOC(=O)[C@H](C)NP(=O)(OC[C@H]1O[C@@H](n2cc(F)c(=O)[nH]c2=O)CC1O)Oc1cccc2ccccc12 (stereo partly drawn) [CPF 589, 5-Fluoro-2′-deoxyuridine-5′-O-[1-naphthyl-(butoxy-L-alaninyl)] phosphate] | 2700 ± 1500 | 2700 ± 1500 | 22 ± 4 | 20 | 22 ± 4 | 9.5 ± 2.1 | 120 ± 20 | 120 ± 20 | 32 | 63 | 21 ± 7.1 | 2.2 |  |  |  |  |  |  |  |  | CC50 ([5]; Mus musculus): 110 ± 60 nM; IC50 ([5]; Mus musculus, L1210): 110 ± 60 nM; CC50 ([6]; Homo sapiens, CCRF-CEM): 64 ± 7 nM; IC50 ([6]; Homo sapiens, CCRF-CEM): 64 ± 7 nM; CC50 ([7]; Homo sapiens, CEM-TK(-)): 840 ± 600 nM; IC50 ([7]; Homo sapiens, CEM-TK(-)): 840 ± 600 nM |
| CC(C)CC(NP(=O)(OCC1OC(n2cc(F)c(=O)[nH]c2=O)CC1O)Oc1cccc2ccccc12)C(=O)OCc1ccccc1 (stereo not drawn) [Nap Bn Leu] |  |  |  |  |  |  |  |  |  |  |  | 1.7 | 9400 ± 1400 | 28 ± 4 | 29 ± 2.1 | 80 ± 22 | 48 ± 20 | 1500 ± 600 | 130 | 30000 ± 6000 |  |
| CSCCC(NP(=O)(OCC1OC(n2cc(F)c(=O)[nH]c2=O)CC1O)Oc1cccc2ccccc12)C(=O)OCc1ccccc1 (stereo not drawn) [Nap Bn Met] |  |  |  |  |  |  |  |  |  |  |  | 3.7 | 8300 | 72 ± 1 | 54 ± 13 | 87 ± 17 | 200 ± 98 | 1900 ± 200 | 190 ± 100 | 11000 ± 1000 |  |
| CCCCCCOC(=O)C(C)NP(=O)(OCC1OC(n2cc(F)c(=O)[nH]c2=O)CC1O)Oc1cccc2ccccc12 (stereo not drawn) [Nap Hex Ala] |  |  |  |  |  |  |  |  |  |  |  | 0.69 | 1800 ± 100 | 7.2 | 3.2 ± 0.35 | 39 ± 18 | 2.2 ± 0.28 | 76 ± 15 | 80 ± 20 | 650 ± 340 |  |
| CCCCCOC(=O)C(C)(C)NP(=O)(OCC1OC(n2cc(F)c(=O)[nH]c2=O)CC1O)Oc1cccc2ccccc12 (stereo not drawn) [Nap Pnt DMG] |  |  |  |  |  |  |  |  |  |  |  | 0.42 | 2300 ± 100 | 37 ± 10 | 45 ± 2.1 | 120 ± 30 | 19 ± 2.8 | 300 ± 130 | 140 | 5400 ± 1100 |  |
| CCCCCOC(=O)C(CC(C)C)NP(=O)(OCC1OC(n2cc(F)c(=O)[nH]c2=O)CC1O)Oc1cccc2ccccc12 (stereo not drawn) [Nap Pnt Leu] |  |  |  |  |  |  |  |  |  |  |  | 1.13 | 7500 ± 400 | 17 ± 1 | 31 ± 2 | 39 ± 14 | 35 ± 10 | 1200 ± 400 | 71 ± 8 | 15000 ± 4000 |  |
| CCCOC(=O)C(C)NP(=O)(OCC1OC(n2cc(F)c(=O)[nH]c2=O)CC1O)Oc1cccc2ccccc12 (stereo not drawn) [Nap Pr Ala] |  |  |  |  |  |  |  |  |  |  |  | 1.2 | 2500 ± 100 | 21 ± 12 | 30 ± 0.35 | 110 ± 30 | 36 ± 6.4 | 160 ± 70 | 140 ± 10 | 1100 ± 200 |  |
| CC(C)CC(NP(=O)(OCC1OC(n2cc(F)c(=O)[nH]c2=O)CC1O)Oc1ccccc1)C(=O)OCc1ccccc1 (stereo not drawn) [Ph Bn Leu] |  |  |  |  |  |  |  |  |  |  |  | 3.2 | 5600 ± 300 | 44 ± 25 | 54 ± 2.1 | 67 ± 42 | 170 ± 47 | 2000 ± 300 | 240 ± 40 | 16000 ± 1000 |  |
